The subject of the test is L1210. The test is described as follows: Cytotoxicity against mouse L1210 cells. In kind it is functional, cell-based.

SMILES strings stand for the structures. Values after ≈ are worked out from the molar mass of the structure shown.

Compound `C=C1/C=C(\C)C(C)(O)CC(O)CC(=O)C(O)C(O)C(C)CC(C)OC(=O)/C(C)=C/CC/C=C/C(OC)C(O)CC(C)C1` (stereo unspecified) returned an IC50 of 0.081 mg/L (≈ 0.136 µM).

For the origin of these results see ChEMBL document CHEMBL1147307, “Cytotoxic macrolides from a cultured marine dinoflagellate of the genus Amphidinium” (J Nat Prod, 1989).
